Source: US20040110802A1, “Antibacterial benzoic acid derivatives” (priority 2002, published 2004)
Converted amounts (≈) assume the structure as drawn. Like-named read-outs stand apart in the source and are kept apart here.

Tested on: SAUR 9218
Experiment: MIC Test Method, standard agar dilution
Assay type: cell-based
Conditions: read-out: SAUR 9218 MIC
Method in brief: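 Agar dilution in Mueller Hinton agar with serial 2-fold compound dilutions. Staphylococcus aureus strain 9218 spotted at approximately 10^4 to 10^5 cells per spot, incubated overnight at 35 °C; MIC (μg/ml) is the lowest concentration preventing visible growth.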

[1] = agar dilution, Mueller Hinton agar, incubated overnight at 35° C., lowest concentration that inhibits visible growth

Question: Which MIC [1] does the source give for `N#Cc1ccc(NC(=O)c2ccc(SC3CCCC3)nc2)c(C(=O)O)c1` here?
Answer: 0.5 µg/mL (≈ 1.36 µM)

Question: Which MIC [1] does the source give for `CC(C)N(c1ccc2onc(C(=O)Nc3ccc(C#N)cc3C(=O)O)c2c1)S(C)(=O)=O` here?
Answer: 0.125 µg/mL (≈ 0.283 µM)

Question: How did the MIC [1] turn out when `Cn1cnc(S(=O)(=O)Nc2cccc3cc(C(=O)Nc4ccc(C#N)cc4C(=O)O)n(C)c23)c1` was run?
Answer: 0.5 µg/mL (≈ 1.04 µM)

Question: `N#Cc1ccc(NC(=O)c2ccc(SCC(=O)c3ccc4c(c3)C(=O)NCO4)nn2)c(C(=O)O)c1` was tested. Which MIC [1] did it give?
Answer: 0.5 µg/mL (≈ 1.02 µM)

Question: For `COc1cccc(-c2cc(C(=O)Nc3ccc(O)cc3C(=O)O)no2)c1`, which MIC [1] is on record?
Answer: 0.25 µg/mL (≈ 0.706 µM)

Question: `CCCCOc1ccc(C(=O)Nc2cccc3cc(C(=O)Nc4ccc(C#N)cc4C(=O)O)[nH]c23)cc1` was tested. Which MIC [1] did it give?
Answer: 2 µg/mL (≈ 4.03 µM)

Question: With `Cc1sc(C(=O)Nc2ccc(C#N)cc2C(=O)O)cc1S(=O)(=O)N1CCOCC1` as the compound, how does the MIC [1] read?
Answer: 32 µg/mL (≈ 73.5 µM)

Question: `N#Cc1ccc(NC(=O)c2ccccn2)c(C(=O)O)c1` was tested. Which MIC [1] did it give?
Answer: 32 µg/mL (≈ 120 µM)

Question: How did the MIC [1] turn out when `Cc1sc(C(=O)Nc2ccc(C#N)cc2C(=O)O)cc1S(=O)(=O)N1CCCC1CN1CCCC1` (stereo not drawn) was run?
Answer: 128 µg/mL (≈ 255 µM)

Question: How did the MIC [1] turn out when `CC(C)(C)O/N=C1\CCn2c(C(=O)Nc3ccc(C#N)cc3C(=O)O)cc3cccc1c32` was run?
Answer: 1 µg/mL (≈ 2.32 µM)

Question: Which MIC [1] does the source give for `O=C(Nc1ccc(Cl)cc1C(=O)O)c1cc(-c2ccccc2F)on1` here?
Answer: 0.25 µg/mL (≈ 0.693 µM)

Question: For `Cc1noc(C)c1S(=O)(=O)Nc1ccc2cc(C(=O)Nc3ccc(C#N)cc3C(=O)O)n(C)c2c1`, which MIC [1] is on record?
Answer: 2 µg/mL (≈ 4.05 µM)

Question: How did the MIC [1] turn out when `O=C(Nc1ccc(Br)cc1C(=O)O)C1=NS(=O)(=O)c2ccccc21` was run?
Answer: > 128 µg/mL

Question: How did the MIC [1] turn out when `CC(C)Oc1ccccc1-c1cc(C(=O)Nc2ccc(C#N)cc2C(=O)O)no1` was run?
Answer: 0.125 µg/mL (≈ 0.319 µM)

Question: How did the MIC [1] turn out when `CCCCCCCC(=O)Nc1cccc2cc(C(=O)Nc3ccc(C#N)cc3C(=O)O)[nH]c12` was run?
Answer: 0.125 µg/mL (≈ 0.28 µM)

Question: `Cc1sc(C(=O)Nc2ccc(C#N)cc2C(=O)O)cc1S(=O)(=O)N1CC(C)OC(C)C1` (stereo not drawn) was tested. Which MIC [1] did it give?
Answer: 16 µg/mL (≈ 34.5 µM)

Question: `N#Cc1ccc(NC(=O)c2cc3cccc(NC(=O)c4csc(SCc5ccccc5)n4)c3[nH]2)c(C(=O)O)c1` was tested. Which MIC [1] did it give?
Answer: > 128 µg/mL

Question: How did the MIC [1] turn out when `CC(=O)OCC(=O)Nc1cccc2cc(C(=O)Nc3ccc(C#N)cc3C(=O)O)[nH]c12` was run?
Answer: 2 µg/mL (≈ 4.76 µM)

Question: For `Cc1sc(C(=O)Nc2ccc(Br)cc2C(=O)O)cc1S(=O)(=O)NCc1ccc(N(C)C)cc1`, which MIC [1] is on record?
Answer: 16 µg/mL (≈ 29 µM)

Question: `Cc1nn(-c2ccccc2)nc1C(=O)Nc1ccc(C#N)cc1C(=O)O` was tested. Which MIC [1] did it give?
Answer: 4 µg/mL (≈ 11.5 µM)

Question: How did the MIC [1] turn out when `CCCCOc1ccc2cc(C(=O)Nc3ccc(C#N)cc3C(=O)O)n(C)c2c1` was run?
Answer: 16 µg/mL (≈ 40.9 µM)

Question: Which MIC does the source give for `N#Cc1ccc(NC(=O)c2cc3cccc(NC(=O)CF)c3[nH]2)c(C(=O)O)c1` here?
Answer: 2 µg/mL (≈ 5.26 µM)

Question: Which MIC [1] does the source give for `COc1cccc(-c2cnc(C(=O)Nc3ccc(C#N)cc3C(=O)O)o2)c1` here?
Answer: 0.5 µg/mL (≈ 1.38 µM)

Question: For `CCCC(=O)Nc1cccc2cc(C(=O)Nc3ccc(C#N)cc3C(=O)O)[nH]c12`, which MIC [1] is on record?
Answer: 2 µg/mL (≈ 5.12 µM)

Question: `CCCCSc1cnc(C(=O)Nc2ccc(Br)cc2C(=O)O)cn1` was tested. Which MIC [1] did it give?
Answer: 1 µg/mL (≈ 2.44 µM)

Question: For `N#Cc1ccc(NC(=O)c2noc3ccc(-c4ccccc4CO)cc23)c(C(=O)O)c1`, which MIC [1] is on record?
Answer: 0.5 µg/mL (≈ 1.21 µM)

Question: With `CCCCCSc1ccc(C(=O)Nc2ccc(C#N)cc2C(=O)O)nn1` as the compound, how does the MIC [1] read?
Answer: 0.015 µg/mL (≈ 0.0405 µM)

Question: For `C=CCOc1ccccc1-c1cc(C(=O)Nc2ccc(C#N)cc2C(=O)O)no1`, which MIC [1] is on record?
Answer: 0.125 µg/mL (≈ 0.321 µM)

Question: How did the MIC [1] turn out when `O=C(Nc1ccc(Br)cc1C(=O)O)c1cc(-c2ccccc2)on1` was run?
Answer: 0.25 µg/mL (≈ 0.646 µM)

Question: Which MIC [1] does the source give for `Cc1sc(C(=O)Nc2ccc(C#N)cc2C(=O)O)cc1S(=O)(=O)N(C)CC(O)c1ccccc1` (stereo not drawn) here?
Answer: 2 µg/mL (≈ 4 µM)

Question: With `N#Cc1ccc(NC(=O)c2cncc(-c3cccc4cccnc34)c2)c(C(=O)O)c1` as the compound, how does the MIC [1] read?
Answer: 32 µg/mL (≈ 81.1 µM)

Question: How did the MIC [1] turn out when `N#Cc1ccc(NC(=O)c2cc(-c3ccccc3OCC3COc4ccccc4O3)on2)c(C(=O)O)c1` (stereo not drawn) was run?
Answer: 0.25 µg/mL (≈ 0.503 µM)

Question: `CCCCc1ccc(C(=O)Nc2ccc(Br)cc2C(=O)O)nc1` was tested. Which MIC [1] did it give?
Answer: > 128 µg/mL

Question: Which MIC [1] does the source give for `Cc1nn(C)c(Cl)c1S(=O)(=O)Nc1cccc2cc(C(=O)Nc3ccc(C#N)cc3C(=O)O)n(C)c12` here?
Answer: 0.125 µg/mL (≈ 0.237 µM)

Question: Which MIC [1] does the source give for `N#Cc1ccc(NC(=O)c2cc3cccc(NC(=O)c4cccc(S(=O)(=O)N5CCOCC5)c4)c3[nH]2)c(C(=O)O)c1` here?
Answer: 0.5 µg/mL (≈ 0.872 µM)

Question: `CC1(C)OCC(CCc2nc(C(=O)Nc3ccc(Br)cc3C(=O)O)co2)O1` (stereo not drawn) was tested. Which MIC [1] did it give?
Answer: > 128 µg/mL

Question: `O=C(Nc1ccc(Br)cc1C(=O)O)c1cc(CCCc2ccccc2)on1` was tested. Which MIC [1] did it give?
Answer: 0.25 µg/mL (≈ 0.582 µM)

Question: Which MIC [1] does the source give for `Cn1c(C(=O)Nc2ccc(C#N)cc2C(=O)O)cc2c(Br)cc(Br)c(N)c21` here?
Answer: 0.5 µg/mL (≈ 1.02 µM)

Question: Which MIC [1] does the source give for `N#Cc1ccc(NC(=O)c2ncc(-c3cccc(Cl)c3)s2)c(C(=O)O)c1` here?
Answer: 1 µg/mL (≈ 2.61 µM)

Question: With `CNS(=O)(=O)c1ccc2onc(C(=O)Nc3ccc(C#N)cc3C(=O)O)c2c1` as the compound, how does the MIC [1] read?
Answer: 0.06 µg/mL (≈ 0.15 µM)

Question: How did the MIC [1] turn out when `N#Cc1ccc(NC(=O)c2cc(-c3ccc(C(F)(F)F)cc3)on2)c(C(=O)O)c1` was run?
Answer: 1 µg/mL (≈ 2.49 µM)

Question: For `Cn1cccc1-c1cncc(C(=O)Nc2ccc(C#N)cc2C(=O)O)c1`, which MIC [1] is on record?
Answer: 8 µg/mL (≈ 23.1 µM)

Question: How did the MIC [1] turn out when `N#Cc1ccc(NC(=O)c2cc3ccccc3[nH]2)c(C(=O)O)c1` was run?
Answer: 2 µg/mL (≈ 6.55 µM)

Question: How did the MIC [1] turn out when `Cc1sc(C(=O)Nc2ccc(Br)cc2C(=O)O)cc1S(=O)(=O)Nc1ccc2c(c1)OCCO2` was run?
Answer: 8 µg/mL (≈ 14.5 µM)

Question: `CCCC(C)Oc1ccccc1-c1cc(C(=O)Nc2ccc(C#N)cc2C(=O)O)no1` (stereo not drawn) was tested. Which MIC [1] did it give?
Answer: 0.125 µg/mL (≈ 0.298 µM)

Question: Which MIC [1] does the source give for `Cc1sc(C(=O)Nc2ccc(Br)cc2C(=O)O)cc1S(=O)(=O)Nc1ccc(F)c(Cl)c1` here?
Answer: 8 µg/mL (≈ 14.6 µM)

Question: How did the MIC [1] turn out when `COc1ccc(OC)c(-c2ccc3onc(C(=O)Nc4ccc(C#N)cc4C(=O)O)c3c2)c1` was run?
Answer: 0.25 µg/mL (≈ 0.564 µM)

Question: Which MIC [1] does the source give for `CC(C)(C)c1cc(C(=O)Nc2ccc(C#N)cc2C(=O)O)no1` here?
Answer: 1 µg/mL (≈ 3.19 µM)
